Test results from ChEMBL document CHEMBL1201862, “PubChem BioAssay data set” (2004).
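Test compounds were applied to cells in 96-well plates for 48 hours at 5 doses. GI50 marks 50% less growth.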 Active and inactive are the calls of the source. Cut-off read from the data, not from the text of the source: active = GI50 up to about 1.1 µM and inactive = higher.

Experiments:
Assay in all cases: DTP human tumour cell line panel, 48 h
NCI-H522 = test system: NCI-H522
HT-29 = test system: HT-29
U-251 = test system: U-251
OVCAR-5 = test system: OVCAR-5
MDA-MB-231 = test system: MDA-MB-231
K562 = test system: K562
SF-295 = test system: SF-295
SK-OV-3 = test system: SK-OV-3
MDA-MB-435 = test system: MDA-MB-435
CCRF-CEM = test system: CCRF-CEM
LOX IMVI = test system: LOX IMVI
HCT-116 = test system: HCT-116
SF-539 = test system: SF-539
SNB-75 = test system: SNB-75
OVCAR-4 = test system: OVCAR-4
MOLT-4 = test system: MOLT-4
SK-MEL-28 = test system: SK-MEL-28
Malme-3M = test system: Malme-3M
A498 = test system: A498
MCF7 = test system: MCF7

| Structure (SMILES) | GI50 (NCI-H522) | GI50 (HT-29) | GI50 (U-251) | GI50 (OVCAR-5) | GI50 (MDA-MB-231) | GI50 (K562) | GI50 (SF-295) | GI50 (SK-OV-3) | GI50 (MDA-MB-435) | GI50 (CCRF-CEM) | GI50 (LOX IMVI) | GI50 (HCT-116) | GI50 (SF-539) | GI50 (SNB-75) | GI50 (OVCAR-4) | GI50 (MOLT-4) | GI50 (SK-MEL-28) | GI50 (Malme-3M) | GI50 (A498) | GI50 (MCF7) |
| --- | --- | --- | --- | --- | --- | --- | --- | --- | --- | --- | --- | --- | --- | --- | --- | --- | --- | --- | --- | --- |
| Cc1cc(C)c(C2CC(O)C(CO)O2)cc1C (stereo not given) | > 100 µM (inactive) | > 100 µM (inactive) | > 100 µM (inactive) | > 100 µM (inactive) | > 100 µM (inactive) | > 100 µM (inactive) | > 100 µM (inactive) | > 100 µM (inactive) | > 100 µM (inactive) | > 100 µM (inactive) | > 100 µM (inactive) | > 100 µM (inactive) | > 100 µM (inactive) | > 100 µM (inactive) | > 100 µM (inactive) | > 100 µM (inactive) | > 100 µM (inactive) | > 100 µM (inactive) |  |  |
| C[C@]12Cc3cn[nH]c3C(=O)C1CC[C@@H]1C2CC[C@@]2(C)C1CC[C@]2(C)O (stereo not given in full) | > 100 µM (inactive) | > 100 µM (inactive) | > 100 µM (inactive) | > 100 µM (inactive) |  | > 100 µM (inactive) | > 100 µM (inactive) | > 100 µM (inactive) |  | > 100 µM (inactive) | > 100 µM (inactive) | > 100 µM (inactive) | 84.5 µM (inactive) | 39.7 µM (inactive) | > 100 µM (inactive) | > 100 µM (inactive) | > 100 µM (inactive) | > 100 µM (inactive) | > 100 µM (inactive) |  |
| Nc1nc(SCc2ccc([N+](=O)[O-])cc2)nc2c1ncn2C1OC(COP(=O)(O)O)C(O)C1O (stereo not given) | > 100 µM (inactive) | > 100 µM (inactive) | > 100 µM (inactive) | > 100 µM (inactive) |  | > 100 µM (inactive) | > 100 µM (inactive) | > 100 µM (inactive) |  | > 100 µM (inactive) | > 100 µM (inactive) | > 100 µM (inactive) | > 100 µM (inactive) | > 100 µM (inactive) | > 100 µM (inactive) | > 100 µM (inactive) | > 100 µM (inactive) | > 100 µM (inactive) | > 100 µM (inactive) |  |
| O=c1[nH]c(Br)nc2c(N3CCCCC3)c[nH]c12 | 28.3 µM (inactive) | > 100 µM (inactive) | > 100 µM (inactive) | > 100 µM (inactive) |  | > 100 µM (inactive) | > 100 µM (inactive) | > 100 µM (inactive) |  | > 100 µM (inactive) | > 100 µM (inactive) | > 100 µM (inactive) | > 100 µM (inactive) | > 100 µM (inactive) | > 100 µM (inactive) | 29.5 µM (inactive) | > 100 µM (inactive) | > 100 µM (inactive) | > 100 µM (inactive) |  |
| COCCCNC(=O)C1C(=O)C(=O)N(CCCOC)C1=O (stereo not given) | > 100 µM (inactive) | > 100 µM (inactive) | > 100 µM (inactive) | > 100 µM (inactive) |  | > 100 µM (inactive) | > 100 µM (inactive) | > 100 µM (inactive) |  | > 100 µM (inactive) | > 100 µM (inactive) | > 100 µM (inactive) | > 100 µM (inactive) | > 100 µM (inactive) | > 100 µM (inactive) | > 100 µM (inactive) | > 100 µM (inactive) | > 100 µM (inactive) | > 100 µM (inactive) |  |
| COc1ccc(OC(C)=O)c2c1CCC=CC2=O | 1.86 µM (inactive) | 12.3 µM (inactive) | 18.3 µM (inactive) | 16.7 µM (inactive) |  | 3.76 µM (inactive) | 20.9 µM (inactive) | 17.5 µM (inactive) |  | 3.44 µM (inactive) | 4.7 µM (inactive) | 18.7 µM (inactive) | 16.9 µM (inactive) | 15.8 µM (inactive) | 20 µM (inactive) | 12.2 µM (inactive) | 15 µM (inactive) | 20.1 µM (inactive) | 21.5 µM (inactive) |  |
| CCOC(=O)/C(O)=C1\C(=O)N(C)C(=O)C1c1cccc(OC)c1 (stereo not given) | > 100 µM (inactive) | > 100 µM (inactive) | > 100 µM (inactive) | > 100 µM (inactive) |  | > 100 µM (inactive) | > 100 µM (inactive) | > 100 µM (inactive) |  | > 100 µM (inactive) | > 100 µM (inactive) | > 100 µM (inactive) | > 100 µM (inactive) | > 100 µM (inactive) | > 100 µM (inactive) | > 100 µM (inactive) | > 100 µM (inactive) | > 100 µM (inactive) | 95.3 µM (inactive) | > 100 µM (inactive) |
| CCN(CC)CCNC(=O)C1COc2ccc(-c3cc(=O)c4ccccc4o3)cc2O1 (stereo not given) | 18.2 µM (inactive) | 14.9 µM (inactive) | > 45.2 µM (inactive) | 22.3 µM (inactive) |  | 16 µM (inactive) | 18.5 µM (inactive) | 23 µM (inactive) |  | 19.1 µM (inactive) | 17.2 µM (inactive) | 17.8 µM (inactive) | 15.8 µM (inactive) | 17.2 µM (inactive) | 18.5 µM (inactive) | 20.6 µM (inactive) | 17.4 µM (inactive) | 16 µM (inactive) | 16 µM (inactive) | 19.4 µM (inactive) |
| CCc1cccc(C(C)C)c1NC(=O)CC1Sc2ccccc2NC1=O (stereo not given) | 33.4 µM (inactive) | 55.6 µM (inactive) | 71 µM (inactive) | > 100 µM (inactive) |  | 44.6 µM (inactive) | 44.3 µM (inactive) | > 100 µM (inactive) |  | 47.5 µM (inactive) | 45 µM (inactive) | 56.4 µM (inactive) | > 100 µM (inactive) | 60.7 µM (inactive) | 76.2 µM (inactive) | 32.4 µM (inactive) | > 100 µM (inactive) | 83.6 µM (inactive) | 46.8 µM (inactive) |  |
| CCCCCCc1cc2cc(C(=O)Nc3ccc(F)cc3)c(=N)oc2cc1O | 0.655 µM (active) | 28 µM (inactive) | 2.45 µM (inactive) | 16 µM (inactive) |  | 1.18 µM (inactive) | 3.96 µM (inactive) | 2.58 µM (inactive) | 2.92 µM (inactive) | 1.35 µM (inactive) | 2.08 µM (inactive) | 2.51 µM (inactive) | 2.17 µM (inactive) |  | 2.52 µM (inactive) | 1.93 µM (inactive) | 3.27 µM (inactive) | 2.32 µM (inactive) | 5.05 µM (inactive) | 3.09 µM (inactive) |
| O=C(O)C1C(=O)Oc2c(cccc2[N+](=O)[O-])C1O (stereo not given) | > 100 µM (inactive) | > 100 µM (inactive) | > 100 µM (inactive) | > 100 µM (inactive) | > 100 µM (inactive) | > 100 µM (inactive) | > 100 µM (inactive) |  | > 100 µM (inactive) | > 100 µM (inactive) | > 100 µM (inactive) | > 100 µM (inactive) | > 100 µM (inactive) | > 100 µM (inactive) | > 100 µM (inactive) | > 100 µM (inactive) | > 100 µM (inactive) | > 100 µM (inactive) | > 100 µM (inactive) |  |
| CCOP(=O)(O)C1C(CO)OC(n2ccc(=O)[nH]c2=O)C1O (stereo not given) | > 100 µM (inactive) | > 100 µM (inactive) |  |  | > 100 µM (inactive) | > 100 µM (inactive) | > 100 µM (inactive) |  |  | > 100 µM (inactive) | > 100 µM (inactive) | > 100 µM (inactive) | > 100 µM (inactive) | > 100 µM (inactive) | > 100 µM (inactive) | > 100 µM (inactive) | > 100 µM (inactive) | > 100 µM (inactive) | > 100 µM (inactive) |  |
| CCc1cccc(C(C)C)c1NC(=O)C(=O)C(CC(=O)Nc1ccc(Cl)c(Cl)c1)C(=O)OC (stereo not given) | 78.9 µM (inactive) | > 100 µM (inactive) | > 100 µM (inactive) | > 100 µM (inactive) |  | 10.9 µM (inactive) | > 100 µM (inactive) | > 100 µM (inactive) |  | > 100 µM (inactive) | > 100 µM (inactive) | 34.3 µM (inactive) | > 100 µM (inactive) | > 100 µM (inactive) | > 100 µM (inactive) | > 100 µM (inactive) | > 100 µM (inactive) | > 100 µM (inactive) | > 100 µM (inactive) |  |
| CC(C)=CC1C(COC(=O)c2cc3c(cc2Cl)OCO3)C1(C)C (stereo not given) | 18 µM (inactive) | 33 µM (inactive) | 26.8 µM (inactive) | 60.4 µM (inactive) | 73.6 µM (inactive) | 34.4 µM (inactive) | 34.4 µM (inactive) |  | 28 µM (inactive) | 26.9 µM (inactive) | 22.3 µM (inactive) | 33.4 µM (inactive) |  |  | 28.4 µM (inactive) | 16.1 µM (inactive) | 38.8 µM (inactive) | 14.2 µM (inactive) | 31.5 µM (inactive) |  |
| [O-][S+](Nc1ccccc1)c1ccc(Cl)cc1 (stereo not given) | 73.3 µM (inactive) | > 100 µM (inactive) | 23.6 µM (inactive) | > 100 µM (inactive) | > 100 µM (inactive) | > 100 µM (inactive) | > 100 µM (inactive) |  | 31.4 µM (inactive) | 89.9 µM (inactive) | > 100 µM (inactive) | 61.5 µM (inactive) | 18.9 µM (inactive) |  | > 100 µM (inactive) | 31.4 µM (inactive) | > 100 µM (inactive) | > 100 µM (inactive) |  | > 100 µM (inactive) |
| S=C(Nc1ccccc1)c1ccc(CN2CCCCC2)s1 | 17.8 µM (inactive) | 11.3 µM (inactive) | 19 µM (inactive) | 16.2 µM (inactive) |  | 13.8 µM (inactive) | 18.5 µM (inactive) | 19.5 µM (inactive) | 18.1 µM (inactive) | 16.4 µM (inactive) | 17.7 µM (inactive) | 17.5 µM (inactive) | 37.8 µM (inactive) |  | 35.6 µM (inactive) | 16.1 µM (inactive) | 16.2 µM (inactive) | 21 µM (inactive) | 18.4 µM (inactive) | 18 µM (inactive) |
